The values that follow come from publication PMC12844257, “Click Chemistry-Enabled Parallel Synthesis of N-Acyl Sulfonamides and Their Evaluation as Carbonic Anhydrase Inhibitors” (Molecules, 2026).

The structures appear in SMILES notation. pIC50: −log10 of the molar value. Values joined by “and” are separate entries in the source; they are usually repeats but may differ in a detail not shown here. Identical values can stand only once. Like-named read-outs stand apart in the source and are kept apart here.

Assay [1] concerns the target T1, hCA-IX (catalytic domain) (Homo sapiens, UniProt Q16790). The assay can be described thus: Thermal shift assay (TSA / differential scanning fluorimetry). The class given is binding. Conditions: for ΔTm, median: at 40 µM compound, n = 4. In general terms: DSF heats the sample and reads unfolding from a dye or from intrinsic fluorescence.
For the next assay, the target named is T2, hCA-II (Homo sapiens, UniProt P00918).
T2 construct: recombinant hCA-IX (catalytic domain) and hCA-II (full-length protein); made in house; host or cells: E. coli
Put plainly: hCA esterase activity inhibition assay (p-nitrophenyl acetate hydrolysis) with IC50 determination. The class given is biochemical. The procedure: (§1) The catalytic activity of hCA-II and hCA-IX was monitored through the enzymatic hydrolysis of p-nitrophenyl acetate. […]
(§2) hCA esterase activity inhibition screening assay (with IC50 determination) The protocol was adapted from the work by Wu and co-authors.3 Briefly, the catalytic activity of human hCA-IX (catalytic domain) and hCA-II recombinant proteins was monitored by following the hydrolysis of p-nitrophenyl […]
(§3) prepared in DMSO) as a reference compound, were titrated from 200 µM to 0.01 µM at 3× serial dilutions (10-point […]
(§4) HCl, 200 mM NaCl, pH 7.5), and aliquoted into the assay-ready plates with tested compounds immediately prior to the analysis using an automated multichannel dispenser Multidrop Combi (Thermo Fischer Scientific).
(§5) The products of the hydrolysis reaction are acetate and nitrophenolate, which ionizes to give a bright yellow anion […]
(§6) The compounds were formatted into 384-well plates in the following manner. The first two columns (n = 32 wells) […]
(§7) In between, the tested compounds were placed at the defined dilution step of the 10-points concentration curve, each point of which was a quadruplicate (n = 4 wells). Thus, the […]
(§8) deviation of <0.05, were used for further assessment of each point of inhibition curves; they were not shown in the […]
(§9) performed with Labcyte Echo liquid handler to prepare assay-ready plates. Reaction was run in 25 µL of assay buffer […]
(§10) Enzymatic reactions were initiated by pipetting 5 mM stock solution of 4-nitrophenyl acetate (4-NPA) in ethanol to each well (final concentration in the reaction mixture – 0.5 mM for hCA-II and 0.9 mM for hCA-IX). The final reaction volume was 27.5 µL. The enzyme activity was evaluated by monitoring the production of colored product, 4- […]
(§11) SpectraMax M5 (Molecular Devices). The assay was performed twice for each enzyme.
(§12) Each data point of the titration curve was calculated as average of aggregate data value of four measurements per each concentration (technical replicate for each concentration n = 4). The IC50 values were calculated using GraphPad […]
(§13) for maximum inhibition of the enzyme (as described above) and apply this value for further calculation of the percent […]
(§14) Secondly, it was also titrated as one of the tested compounds to ensure that the assay is performing properly withing the given range of the known inhibitor […]
(§15) compounds in Figures S4 and S5.

The target of assay [2] is T1, hCA-IX (catalytic domain). The assay is described as above. The class given is biochemical. The procedure: as §1, §2, §3, §4, §5, §6, §7, §8, §9, §10, §11, §12, §13, §14, §15
In assay [3] the target is hCA-II (full-length protein) (Homo sapiens, UniProt P00918). Put plainly: Thermal shift assay (TSA / differential scanning fluorimetry). The note with it: for Tm: hCA-II.
Setting [4] is: 200 nM hCA-II, 0.5 mM 4-NPA, 10-point curve, n = 4, read-out: IC50.
Where [5] appears, read: hCA-II, bound stated, read-out: potency (IC50).
Setting [6] is: 917 nM hCA-IX, 4-NPA, 10-point curve, n = 4, read-out: IC50.
The mark [7] stands for this setting: hCA-IX, bound stated, read-out: potency (IC50).

A word on the Tm: it is the temperature at the midpoint of the melting transition. The term ΔTm denotes the shift of the melting midpoint relative to a reference. The pIC50 is the IC50 on a negative log10 scale, so that one unit is a factor of ten. Regarding `COCC(=O)NS(=O)(=O)c1ccc(-c2cn(CCN(C)Cc3cccc(F)c3)nn2)cc1` [4{16,7,19}], the midpoint of thermal melting (Tm) is 56.80 °C in assay [1] (screening at 20 µM), 56.98 °C in assay [1] (screening at 40 µM), 51.10 °C in assay [3] (screening at 20 µM) and 49.58 °C in assay [3] (screening at 40 µM). The shift in melting temperature (ΔTm) in assay [1] (screening at 20 µM) turned out to be 1.17 °C; in assay [1] (screening at 40 µM), 0.92 °C. Further, the pIC50 was 6.70 at hCA-II (setting [4]); above 5.00 at hCA-II (setting [5]); 5.96 and 5.95 in assay [2] (setting [6]); above 5.00 in assay [2] (setting [7]). In addition, the ΔTm at 20 µM in assay [3] (read-out: ΔTm) was -3.22 °C. In addition, the ΔTm at 40 µM in assay [3] (read-out: ΔTm, median) is -4.95 °C.
Regarding `Cc1cc(C(=O)NS(=O)(=O)c2ccc(-c3cn(CCN(C)Cc4cccc(F)c4)nn3)cc2)ccn1` [4{16,7,28}], in assay [1], the “ΔTm, median” value was determined as 1.18 °C. Further, the Tm in assay [1] (screening at 20 µM) came out at 56.77 °C; in assay [1] (screening at 40 µM) it was 57.24 °C; in assay [3] (screening at 20 µM), 54.35 °C; in assay [3] (screening at 40 µM), 51.97 °C. In addition, the ΔTm in assay [1] (screening at 20 µM) came out at 1.14 °C. The pIC50 on hCA-II (setting [4]) is 5.77; at hCA-II (setting [5]), above 5.00; in assay [2] (917 nM hCA-IX, 4-NPA, 10-point curve, n = 4, listed as 4(16,7,28), read-out: IC50) it was 5.15; in assay [2] (setting [6]), 5.15; in assay [2] (setting [7]) it was above 5.00. The ΔTm at 20 µM in assay [3] (read-out: ΔTm) came to 0.03 °C. Besides, the ΔTm at 40 µM in assay [3] (read-out: ΔTm, median) was -2.55 °C.
As for `O=C(NS(=O)(=O)c1ccc(-c2cn(CC3COc4ccccc4O3)nn2)cc1)c1cnsc1` (stereo not drawn) [4{17,7,27}], in assay [1], the “ΔTm, median” value worked out at 1.44 °C. Further, the Tm was found to be 56.91 °C in assay [1] (screening at 20 µM), 57.51 °C in assay [1] (screening at 40 µM), 54.82 °C in assay [3] (screening at 20 µM) and 54.73 °C in assay [3] (screening at 40 µM). The ΔTm in assay [1] (screening at 20 µM) turned out to be 1.28 °C. The negative logarithm of the IC50 (pIC50) at hCA-II (setting [4]) was 5.21 and 5.22; in assay [2] (setting [6]) it was 4.63. In addition, the shift in melting temperature (ΔTm) at 20 µM in assay [3] (read-out: ΔTm) is 0.5 °C. Moreover, the thermal shift (ΔTm) at 40 µM in assay [3] (read-out: ΔTm) was found to be 0.21 °C.
Turning to `Cc1cc(C(=O)NS(=O)(=O)c2cccc(-n3cc(-c4ccc5nonc5c4)nn3)c2)on1` [7{2,21,60}], in assay [1], the “ΔTm, median” value came out at 1.17 °C. Besides, the Tm is 55.81 °C in assay [1] (screening at 20 µM), 57.23 °C in assay [1] (screening at 40 µM), 55.24 °C in assay [3] (screening at 20 µM) and 55.22 °C in assay [3] (screening at 40 µM). In assay [1] (screening at 20 µM), the thermal shift (ΔTm) came to 0.18 °C. Also, the pIC50 at hCA-II (setting [4]) was 5.06; in assay [2] (setting [6]), 4.76. The shift in melting temperature (ΔTm) at 20 µM in assay [3] (read-out: ΔTm) worked out at 0.92 °C. Further, the ΔTm at 40 µM in assay [3] (read-out: ΔTm) came to 0.7 °C.
